Format in all cases: in vivo
Assay [1] has as its system banana. Description: Minimum concentration protecting bananas from 333 μl/l ethylene (short-chain cyclopropenes injected as gas). The settings on record: 24 hours exposure to compound as gas in 3-liter jar, then 333 μl/l ethylene 12-15 hours, observed for ripening. Here is the method:
To obtain the minimum concentration that protected bananas from 333 μl/l of ethylene, compounds described in U.S. Pat. No. 5,518,988 to Sisler et al. were applied to bananas according to the methods setforth herein. A known amount of an active compound was injected as a gas into a 3-liter jar containing a banana. The jar was sealed and the banana was removed after 24 hours. At the end of exposure, the banana was treated with 333 pill of ethylene in a 3-liter jar for 12-15 hours. It was then observed for ripening. The minimum concentration is the minimum concentration that protected the banana from 333 μl/l of ethylene. Ten microliters/liter of ethylene is usually considered to be a saturating amount.

For assay [2], the system named is banana. Description: Time of protection (insensitivity to ethylene) of bananas, short-chain cyclopropenes. The settings on record: saturating amount (at least 10 times minimum) for 24 hours, daily challenge with 333 μl/l ethylene 12-15 hours. The method, then:
To obtain the time of protection, bananas were exposed to a saturating amount of the compound for 24 hours (this was done as above and at least 10 times the minimum protection amount was used). After exposure, bananas were removed from the jars and each day individual bananas were exposed to 333 pill of ethylene for 12-15 hours. The day the bananas responded to ethylene was recorded as the protection time.

For assay [3], the system named is Patio variety tomato seedlings. As to the kind of experiment: Tomato epinasty test, spray application treatment. The note with it: applied as a spray; ethylene 10 ppm v/v; scale of 0 to 10, 10 complete protection. Here is the method:
The test procedure is designed to determine the ability of an compound according to the present invention to block the epinastic growth response induced by ethylene in tomato plants when the compound is administered either as a volatile gas or as a component of a spray solution.
Treatment chambers are of an appropriate size for the test plants and are airtight. Each is fitted with a reusable septum to be used for injection of ethylene.
Test plants are Patio variety tomato seedlings planted two plants per three inch square plastic pot.
Spray application treatment entails using a DeVilbiss atomizer to completely cover all foliage and stems of two pots of Patio var. tomato plants with the appropriate amount of experimental compound dissolved in 10% acetone/90% water with 0.05% Silwett L-77 surfactant. Plants are air-dried in a drying hood for four hours then transferred to a 4.8 L polystyrene chamber which is sealed.
Ethylene gas equal to 10 ppm v/v final concentration is injected into the sealed chamber. Sixteen hours later the chambers are opened in an exhaust hood, allowed to air and the plants scored visually for the degree of protection against ethylene-induced epinasty conferred by the experimental compound when compared to ethylene treated and untreated controls on a scale of 0 to 10. A rating of 10 means complete protection. […]

The subject of assay [4] is banana. As to the kind of experiment: Minimum concentration protecting bananas from 333 μl/l ethylene (compound on filter paper in 3-liter jar). Here is the method:
To obtain the minimum concentration that protected bananas from 333 μl/l of ethylene, compounds according to the present invention were applied to bananas according to the method described herein. A known amount of the active compound was placed on filter paper in a 3-liter jar to facilitate evaporation into the vapor state. The compounds were applied in an ethyl ether solution because the amount used was potentially too small to apply unless they were in solution. The amount of ether (about 10 μl in 3 l) was without effect when applied alone on a banana contained in a 3-liter jar. The jar was sealed and the banana was removed after 4 hours of exposure. At the end of exposure, the banana was treated with 333 μl/l of ethylene in a 3-liter jar for 12-15 hours. It was then observed for ripening. The minimum concentration is the concentration that protected the bananas from 333 μl/l of ethylene. Ten microliters/liter of ethylene is usually considered to be a saturating amount. This procedure was repeated for 8-, 24- and 48-hour treatment times to determine the minimum concentration of active compounds of the present invention needed to provide protection from 333 μl/l of ethylene for a given treatment time.

Assay [5] concerns banana. Description: Time of protection (insensitivity to ethylene) of bananas, compounds of the invention. The settings on record: saturating amount (at least 10 times minimum) for 24 hours, daily challenge with 333 μl/l ethylene 12-15 hours. The method, then:
To obtain the time of protection, bananas were exposed to a saturating amount of the compound for 24 hours (this was done as described in Example 1 above and at least 10 times the minimum protection amount was used). After exposure, bananas were removed from the jars and each day individual bananas were exposed to 333 μl/l of ethylene for 12-15 hours. The day the bananas responded to ethylene was recorded as the protection time.

In assay [6] the test system is Patio variety tomato seedlings. Description: Tomato epinasty test, volatile gas treatment. The settings on record: ethylene 10 ppm v/v, scale of 0 to 10, 10 complete protection, 0 no protection. Here is the method:
The test procedure is designed to determine the ability of an compound according to the present invention to block the epinastic growth response induced by ethylene in tomato plants when the compound is administered either as a volatile gas or as a component of a spray solution. Treatment chambers are of an appropriate size for the test plants and are airtight. Each is fitted with a reusable septum to be used for injection of ethylene. Test plants are Patio variety tomato seedlings planted two plants per three inch square plastic pot. Volatile gas treatment entails placing two pots of Patio var. tomatoes into a polystyrene 4.8 L volume treatment chamber along with one-half (upper or lower section) of a 50×9 mm plastic Petri dish containing a Gelman filter pad. The appropriate amount of experimental compound, dissolved in 1.0 ml acetone, is pipetted onto the filter pad and the chamber immediately sealed. Four hours later ethylene gas equal to 10 ppm v/v final concentration is injected into the sealed chamber. Sixteen hours later the chambers are opened in an exhaust hood, allowed to air and the plants scored visually for the degree of protection against ethylene-induced epinasty conferred by the experimental compound when compared to ethylene treated and untreated controls on a scale of 0 to 10. A rating of 10 means complete protection. A rating of 0 means no protection from the effects of ethylene.

Where [7] appears, read: Table 2 (values equal the 24-hour treatment of Table 1).
Setting [8] is: treatment time 4 hours, then 333 μl/l ethylene 12-15 hours.
The mark [9] stands for this setting: treatment time 8 hours, then 333 μl/l ethylene 12-15 hours.
Where [10] appears, read: treatment time 24 hours, then 333 μl/l ethylene 12-15 hours.
Where [11] appears, read: treatment time 48 hours, then 333 μl/l ethylene 12-15 hours.

As for “1-ethylcyclopropene [1-ethylcyclopropene (1-ECP)]”, the “Minimum Concentration” value with banana [1] came out at 4 nl/l. Besides, the “Time of Insensitivity” value with banana [2] stood at 12 days.

Turning to “1-methylcyclopropene [1-methylcyclopropene (1-MCP)]”, the “Minimum Concentration” value in the assay on banana [1] is given as 0.7 nl/l. The “Time of Insensitivity” value in the assay with banana [2] was found to be 12 days.

As to `CCCCC1=CCC1` [1-butylcyclobutene, reference compound], the “Protection against ethylene-induced epinasty, rating” value (from here on “Protection”) in assay [3] worked out at 5.

With `CCCCC1=CC1` [1-butylcyclopropene (1-BCP), 1-butylcyclopropene], the “Minimum Concentration” value with banana [1] is 3 nl/l. In addition, the “Time of Insensitivity” value in the assay with banana [2] was found to be 12 days.

Regarding `CCCCCC1=CCC1` [1-pentylcyclobutene], the “Protection” value in assay [3] is 10.

For `CCCC1=CC1` [1-propylcyclopropene (1-PCP), 1-propylcyclopropene], in the assay with banana [1], the “Minimum Concentration” value amounted to 6 nl/l. Further, in the assay on banana [2], the “Time of Insensitivity” value is recorded as 12 days.

In the case of `CCCCCCC1=CC1` [Compound 1, 1-Hexyl-cyclopropene], the “Minimum Concentration” value was 0.4 nl/l with banana [4] (setting [7]); 12.0 nl/l in the assay on banana [4] (setting [8]); 0.8 nl/l with banana [4] (setting [9]); 0.4 nl/l in the assay with banana [4] (setting [10]); 0.3 nl/l in the assay with banana [4] (setting [11]). The “Time of Insensitivity” value in the assay with banana [5] is listed as 20 days. In addition, the “Protection” value in assay [6] (Gas 10 ppm) amounted to 10.

On to `CCCCCCCCC1=CC1` [Compound 23, 1-octylcyclopropene], for which the “Minimum Concentration” value in the assay on banana [4] (setting [7]) is reported as 0.3 nl/l; in the assay with banana [4] (setting [8]), 0.8 nl/l; with banana [4] (setting [9]), 0.45 nl/l; in the assay with banana [4] (setting [10]), 0.3 nl/l; in the assay on banana [4] (setting [11]) it was 0.25 nl/l. In the assay with banana [5], the “Time of Insensitivity” value is 25 days. Besides, in assay [6] (Gas 10 ppm), the “Protection” value was determined as 10.

As for “Hex-5-yne 2-octylcycloprop-2-ene-1-carboxylate [Compound 22]”, the “Protection” value in assay [6] (Gas 10 ppm) was determined as 0; in assay [6] (Gas 750 ppm) it was 9.

In the case of cyclopropene [cyclopropene (CP)], in the assay on banana [1], the “Minimum Concentration” value was 0.7 nl/l. The “Time of Insensitivity” value in the assay on banana [2] is given as 12 days.
